Among the data in patent publication US7067520B2, “Preventive or therapeutic medicines for diabetes containing fused-heterocyclic compounds or their salts” (Ishihara Sangyo Kaisha, Ltd., priority 2000, dated 2006) are melting point and activity values, retold here.

For one data set, the system named is L6 cells. Nature of the data set: Glucose uptake test by L6 cells. The class given is cell-based. The settings on record: Rattus norvegicus, 1 hour, 2-deoxy-[3H]-glucose uptake, control (MEM solvent alone) = 100%, read-out: Ratio activity (%); for activity at 10 µg/mL: treatment concentration 10 μg/ml; for activity at 100 µg/mL: treatment concentration 100 μg/ml. As for the experimental part: Glucose Uptake Test by L6 Cells
Each of compounds under test was applied to L6 cells (rat cells originally derived from skeletal muscles) by the following method to measure the stimulating effect on glucose uptake. Namely, L6 cells were suspended in α-minimum essential medium (hereinafter referred to simply as MEM) containing 10% fetal bovine serum (hereinafter referred to simply as FBS), and inoculated into a 96-well plastic plate in an amount of 5×10^4 cells/well and cultivated in an incubator (5% carbon dioxide gas, 37° C.) until the cells grew all over the well. Then, the culture medium was switched to MEM solution containing 2% BS, followed by cultivation further for from 7 to 10 ays (the culture medium was exchanged every three days) to differentiate the cells into skeletal muscle cells. Then, the culture medium was replaced with MEM solution without FBS, followed by cultivation for three hours, and then the compound under test prepared to a treatment concentration (diluted with MEM solution without FBS) was reacted with the skeletal muscle cells at 37° C. for 1 hour. The cells were washed with Krebs-Henseleit-Ringer buffer solution (hereinafter referred to simply as KHR buffer solution), and 2-deoxy-[^3H]-glucose was added to the cells in the KHR buffer solution, followed by treatment at 37° C. for 10 minutes. The treatment solution was removed, the cells were washed with the KHR buffer solution, then the cells were dissolved in a 1N sodium hydroxide solution in an appropriate amount, and the [^3H] radio activity was measured by means of a liquid scintillation counter (cpm) The percentage of the glucose uptake was represented by the percentage of radio activity when the compound under test was applied, taking the radio activity of the control (the MEM solvent alone was applied) as 100%. Each of the compounds as identified in Table 27 was used for treatment at a concentration of each of 10 μg/ml and 100 μg/ml to examine the stimulating effect on glucose uptake.

Each structure is given as a SMILES string.

A word on the melting point: it is the temperature of the solid-liquid transition. With `CSc1nc2ccnn2c(Nc2ccc(C)cc2)c1C#N` [compound 164], the melting point fell in the range of 201 to 202 °C. Further, the activity at 10 µg/mL with L6 cells is over 115%.

With `Cc1nc2ccnn2c(N)c1C#N` [compound 25], in the data set with L6 cells, the activity at 100 µg/mL is over 115%.

Compound `CCOC(=O)c1c(SC)nc2ccnn2c1Nc1cccc(C#N)c1` [compound 223] came in with a melting point of 156 to 157 °C. For the same compound, in the data set with L6 cells, the activity at 10 µg/mL was over 115% and the activity at 100 µg/mL was over 115%.

`C=CCONc1c(C#N)c(SC)nc2ccnn12` [compound 174]: the melting point fell in the range of 129 to 130 °C. Moreover, the activity at 100 µg/mL in the data set with L6 cells is over 115%.

Consider `CNc1c(C#N)c(SC)nc2ccnn12` [compound 14], for which the melting point is 216 °C. For the same compound, in the data set with L6 cells, the activity at 100 µg/mL was over 115%.

`C#CCNc1nc(SC)nc2ccnn12` [compound 64]: the melting point amounted to 175 °C. Besides, in the data set on L6 cells, the activity at 10 µg/mL is over 115%.

`CSc1nc2ccnn2c(NCCCn2ccnc2)c1C#N` [compound 83]: the melting point fell in the range of 144 to 146 °C. The activity at 100 µg/mL in the data set on L6 cells is over 115%.

`C#CCNc1c(C#N)c(C)nc2ccnn12` [compound 22] yielded a melting point of 169 °C. Besides, in the data set with L6 cells, the activity at 10 µg/mL was over 115% and the activity at 100 µg/mL was over 115%.

For the compound `CCOC(=O)c1c(SC)nc2ccnn2c1NCc1ccncc1` [compound 221], the melting point amounted to 123 °C. In the data set on L6 cells, the activity at 10 µg/mL was over 115% and the activity at 100 µg/mL was over 115%.

For `CCSc1nc2ccnn2c(NCc2ccncc2)c1C#N` [compound 68], the melting point was 196 to 196.4 °C. Also, in the data set on L6 cells, the activity at 10 µg/mL is over 115% and the activity at 100 µg/mL was over 115%.

Consider `C#CCOc1c(C#N)c(SC)nc2ccnn12` [compound 53], for which the melting point was 183 °C. The activity at 100 µg/mL in the data set with L6 cells was over 115%.

In turn, `N#Cc1c(SC2CCCC2)nc2ccnn2c1NCc1ccncc1` [compound 105] came in with a melting point of 153.4 to 155.4 °C. In addition, the activity at 10 µg/mL in the data set with L6 cells was over 115%.

In turn, `COC(=O)c1c(SC)nc2ccnn2c1NCc1ccccc1` [compound 120] registered a melting point of 124.5 to 126.5 °C. In addition, in the data set with L6 cells, the activity at 10 µg/mL is over 115%.

For the compound `CSc1nc2ccnn2c(Nc2ccccc2Cl)c1C#N` [compound 163], the melting point lay in the range of 201 to 202 °C. Further, in the data set on L6 cells, the activity at 10 µg/mL is over 115%.

Compound `CSc1nc2ccnn2c(NCc2cccnc2)c1C#N` [compound 4] came in with a melting point of 192 °C. In addition, in the data set with L6 cells, the activity at 100 µg/mL was over 115%.

Compound `CSc1nc2ccnn2c(NOCc2ccccc2)c1C#N` [compound 172] returned a melting point of 177 to 178 °C. In the data set with L6 cells, the activity at 10 µg/mL was over 115% and the activity at 100 µg/mL is over 115%.

`CSc1nc2ccnn2c(NCCc2ccncc2)c1C#N` [compound 215] registered a melting point of 184 to 185 °C. In addition, in the data set on L6 cells, the activity at 10 µg/mL is over 115%.

With `CSc1nc2nccn2c(NCc2ccncc2)c1C#N` [compound 43], the melting point came to 204 °C. Besides, in the data set with L6 cells, the activity at 10 µg/mL was over 115% and the activity at 100 µg/mL is over 115%.

`CSc1nc2ccnn2c(NCc2ccccn2)c1C#N` [Compound No. 5] displayed a melting point of 190 °C. Further, the activity at 100 µg/mL in the data set on L6 cells is over 115%.

`CSc1nc2ccnn2c(Nc2ccccc2C)c1C#N` [compound 203] yielded a melting point of 192 to 194 °C. In addition, the activity at 10 µg/mL in the data set on L6 cells was over 115%.

Take `CSc1nc2ccnn2c(NCC2CCCCO2)c1C#N` (centres unmarked) [compound 11]: the melting point was in the range of 121 to 122 °C. Moreover, the activity at 10 µg/mL with L6 cells was over 115%.

In the case of `COC(=O)c1c(SC)nc2ccnn2c1Nc1ccccc1` [compound 122], in the data set with L6 cells, the activity at 10 µg/mL is over 115% and the activity at 100 µg/mL is over 115%.

For `CSc1nc2ccnn2c(N)c1C#N` [compound 1, 7-amino-5-methylthiopyrazolo[1,5-a]pyrimidine-6-carbonitrile], the melting point is over 240 °C.

For `CSc1nc2ccnn2c(NCCC2OCCCO2)c1C#N` [compound 216], the melting point lay in the range of 103 to 104 °C.

For `CSc1nc2ccnn2c(Nc2ccc(C(C)=O)cc2)c1C#N` [compound 199], the melting point is 260 to 261 °C.

`CSc1nc2ccnn2c(Nc2ccc(CC#N)cc2)c1C#N` [compound 198] displayed a melting point of 268 to 269 °C.

In turn, `CSc1nc2ccnn2c(N=Cc2ccccc2)c1C#N` [compound 34] registered a melting point of 188 °C.

Take `C=CCSc1nc2ccnn2c(NCc2ccncc2)c1C#N` [compound 76]: the melting point was in the range of 178.8 to 179.8 °C.

In turn, `CSc1nc2ccnn2c(NCc2ccccc2)c1C(=O)O` [compound 128] returned a melting point of 162.7 to 164 °C.

In turn, `CSc1nc2ccnn2c(Nc2ccccc2C#N)c1C#N` [compound 214] returned a melting point of 206 to 208 °C.

Turning to `CSc1nc2ccnn2c(Nc2ccc(S(N)(=O)=O)cc2)c1C#N` [compound 149], the melting point was 285 to 288 °C (dec.).

As for `CSc1nc2cc(C)nn2c(Cl)c1C#N` [compound 185], the melting point fell in the range of 182 to 187 °C.

The compound `CSc1nc2ccnn2c(NOc2ncc(C(F)(F)F)cc2Cl)c1C#N` [compound 204] came in with a melting point of 182 to 183 °C.

The compound `CCN(Cc1ccncc1)c1c(C#N)c(SC)nc2ccnn12` [compound 228] returned a melting point of 102 to 103 °C.

For `CSc1nc2ccnn2c(NOCc2ccccc2)c1C(=O)O` [compound 132], in the data set on L6 cells, the activity at 100 µg/mL was over 115%.

`CSc1nc2cccn2c(NC2CCCCC2)c1C#N` [compound 109]: the melting point lay in the range of 117 to 118 °C.

As for `CSc1nc2ccnn2c(NCc2ncc(C(F)(F)F)cc2Cl)c1C#N` [compound 207], the melting point was 185 to 187 °C.

With `COC(=O)c1c(SC)nc2ccnn2c1NC1CCCC1` [compound 123], the melting point is 84.5 to 85.5 °C.

`CSc1ccc(Nc2c(C#N)c(SC)nc3ccnn23)cc1` [compound 196] returned a melting point of 190 to 191 °C.

`CSc1nc2ccnn2c(NCC2CCCO2)c1C#N` (centres unmarked) [compound 212] displayed a melting point of 116 to 120 °C.

In turn, `CCC(CC)Sc1nc2ccnn2c(N)c1C#N` [compound 113] returned a melting point of 242 to 243.8 °C.

`CSc1nc2ccnn2c(NCc2cccc3ccccc23)c1C#N` [compound 30]: the melting point amounted to 195 °C.

The compound `CSc1nc2ccnn2c(NCc2ccncc2)c1C(=O)OCc1ccccc1` [compound 147] gave a melting point of 122 to 123 °C.

`N#Cc1c(SCc2ccccc2)nc2ccnn2c1NCc1ccccc1` [compound 70]: the melting point was 121 to 122.2 °C.

In the case of `CSc1nc2ccnn2c(Nc2cccc(S(=O)(=O)N(C)C)c2)c1C#N` [compound 151], the melting point fell in the range of 205 to 208 °C.

As for `C#CCSc1nc2ccnn2c(N)c1C#N` [compound 94], the melting point is 206 °C (dec.).

Compound `COc1c(C#N)c(SC)nc2ccnn12` [compound 229] had a melting point of 223 to 224 °C.

For `CSc1nc2cc(C)nn2c(Nc2ccccc2)c1C#N` [compound 189], the melting point was 185 to 187 °C.

The compound `CCSc1nc2ccnn2c(N)c1C#N` [compound 66] gave a melting point of over 240 °C.

With `CSc1nc2nc(SC)c(C#N)c(N)n2n1` [compound 35], the melting point was over 250 °C.

As to `CSc1nc2nc(SC)c(C#N)c(NCc3ccncc3)n2n1` [compound 38], the melting point was 230 to 233 °C.

Consider `COCSc1nc2ccnn2c(N)c1C#N` [compound 106], for which the melting point is 214 to 216 °C (dec.).

Compound `CSc1nc2ccnn2c(N)c1C#N` [compound 41] displayed a melting point of over 250 °C.

Compound `CSc1nc2ccnn2c(Nc2ccncc2)c1C#N` [compound 81] displayed a melting point of 260 to 263 °C.

`CSc1nc2ccnn2c(NCCOc2ccccc2)c1C#N` [compound 181] showed a melting point of 122 °C.

Turning to `N#Cc1c(-c2ccccc2)nc2ccnn2c1NCc1ccncc1` [compound 89], the melting point lay within 199 to 201 °C.

Consider `COC(=O)c1cccc(Nc2c(C#N)c(SC)nc3ccnn23)c1` [compound 194], for which the melting point was 153 to 155 °C.

For the compound `CSc1nc2nccn2c(NCc2ccccc2)c1C#N` [compound 42], the melting point came to 179 °C.

Compound `CCOC(=O)c1ccc(Nc2c(C#N)c(SC)nc3ccnn23)cc1` [compound 175] came in with a melting point of 191 to 192 °C.

`CSc1nc2ccnn2c(Nc2ccc(NC(C)=O)cc2)c1C#N` [compound 193]: the melting point is over 280 °C.

Take `CSc1nc2c(Br)cnn2c(NCc2ccccc2)c1C#N` [compound 55]: the melting point stood at 184 °C.

`CSc1nc2ccnn2c(Nc2cccc(S(N)(=O)=O)c2)c1C#N` [compound 152] showed a melting point of over 280 °C.
